Measured values reported in US4997771A, “Method for measuring the BZ-1 receptor binding activity in a test sample or test compound” (Schering Corporation, priority 1987, dated 1991).

Key:
[1] = molecular target: benzodiazepine sites (BZ-1 receptors) in rat cortex (Rattus norvegicus, UniProt P18508+P62813); experiment: Saturation binding of ^3 H-2-oxo-quazepam in rat cortex; details: for non-specific binding: 0.5 nM
Description: (§1) Male Spraque-Sawley rats (200 to 250 gms) from Charles River Breeding Laboratories, Mass., were used to obtain brain tissue. Animals were decapitated and their brains removed. Synaptic membranes were obtained following the procedure disclosed in Life Sc., 35, 105 (1984). Cerebral cortex and cerebellum were dissected on ice and homogenized in 20 volumes of ice cold 0.32 M sucrose using a glass homogenizer fitted with a teflon pestle. The homogenates were then centrifuged at 48,000 X g for 10 min, and the resultant P2 pellets were washed twice by re-centrifugation in 50 mM Na/K phosphate buffered saline (pH 7.4). The washed pellets were pooled and then resuspended in the same buffer to a final concentration of 50 mg of original tissue weight/ml.
Saturation binding studies were conducted utilizing ^3 H-2-oxo-quazepamin rat cortex over a range of concentrations from 0.1 to 30 nM. The separation between specific and non-specific binding indicated the suitability of ^3 H-2-oxo-quazepam as a radioligand for benzodiazepine sites. Specific binding was defined as the difference between total binding and binding in the presence of 100 nM unlabeled clonazepam. At a concentration of 0.5 nM, non-specific binding for the radioligand constituted only 5 to 10 percent of total binding.

[2] = molecular target: T1, ^3 H-flunitrazepam binding sites in rat cerebellum (BZ-1) (Rattus norvegicus, UniProt P18508+P62813); experiment: ^3 H-flunitrazepam competition binding, rat cerebellum
T1 construct: Cerebral cortex and cerebellum were dissected on ice and homogenized; tissue Charles River Breeding Laboratories (rats); host or cells: rat cerebellum synaptic membranes (washed P2 pellet)
Description: as §1, with “weight/ml. […]” for “weight/ml.”
Incubations were carried out at 0° C. for 90 minutes. […] Filter-bound radioactivity was quantified through liquid scintillation counting following overnight solubilization of the receptor-radioligand complex in "Scintosol" scintillation cocktail (Isolab, Inc.). […]

[3] = molecular target: T2, ^3 H-2-oxo-quazepam binding sites (BZ-1 receptors) in cerebellum (Rattus norvegicus, UniProt P18508+P62813); experiment: ^3 H-2-oxo-quazepam competition binding, cerebellum
T2 construct: Cerebral cortex and cerebellum were dissected on ice and homogenized; tissue Charles River Breeding Laboratories (rats); host or cells: rat cerebellum synaptic membranes (washed P2 pellet)
Description: as §1
(§2) Total reaction mixture volume was 1 ml which included: (a) 100 μl of either ^3 H-flunitrazepam or ^3 H-2-oxo-quazepam (tritiated at the α-carbon of the trifluoroethyl substituent located at the #1 position), yielding a final concentration of 0.5 nM (b) 100 μl of various concentrations of competing drugs dissolved or suspended in 50 mM phosphate buffered saline (pH 7.4) containing 4 mg/ml methylcellulose (c) 800 μl of tissue homogenate diluted such that a total of 5 mg of tissue was present in the final reaction mixture. In each competition experiment 25 to 30 concentrations of drug were used to obtain a complete dose response curve.
(§3) Incubations were carried out at 0° C. for 90 minutes. Samples were then filtered under vacuum through 25 mm diameter Whatman GF/B filters on a Millipore 1225 Sampling Manifold and quickly washed with 3×5 ml of ice-cold PBS buffer. Filter-bound radioactivity was quantified through liquid scintillation counting following overnight solubilization of the receptor-radioligand complex in "Scintosol" scintillation cocktail (Isolab, Inc.).
Compound assisted curve fitting was conducted on an Apple IIe computer using a program described in Br. J. Pharmacol., 80, 582P (1983) and Trends in Pharmaceutical Sci., 5, 47, (1984). […]

[4] = test system: benzodiazepine (BZ) receptors in brain; details: literature; cited from earlier work
[5] = test system: ^3 H-flunitrazepam binding sites (benzodiazepine receptors BZ-1 and BZ-2) in rat cortex; experiment: ^3 H-flunitrazepam competition binding, rat cortex; details: for difference in binding affinity for two BZ receptors (BZ-1 and BZ-2): vs ^3 H-flunitrazepam, average; for populations of binding sites distinguished: unlabeled drug vs ^3 H-flunitrazepam
Description: as §1, §2, §3
(§4) Compound assisted curve fitting was conducted on an Apple IIe computer using a program described in Br. J. Pharmacol., 80, 582P (1983) and Trends in Pharmaceutical Sci., 5, 47, (1984). Enhancements were made to the program to allow disk storage of data and printing of the program to allow disk storage of data and printing of the graphics display. The program determines whether the results from individual competition experiments are best interpreted on the basis of a 1 or 2 site model and also provides the most probable proportions of radioligand bound to each of the sites.
(§5) Selection among models was made by comparing the sum of squares residual values for the best single and 2-site models and determining through a partial F-test evaluation whether 2-site modelling produced a statistically meaningful (P<0.05) improvement in fit as described in Anal. Biochem., 107, 220 (1980). If not, the best single site model was considered the model of choice.

[6] = molecular target: T3, ^3 H-2-oxo-quazepam binding sites (BZ-1 receptors) in rat cortex (Rattus norvegicus, UniProt P18508+P62813); experiment: ^3 H-2-oxo-quazepam competition binding, rat cortex; details: for best-fit curve model: vs ^3 H-2-oxo-quazepam 0.5 nM
T3 construct: Cerebral cortex and cerebellum were dissected on ice and homogenized; tissue Charles River Breeding Laboratories (rats); host or cells: rat cerebral cortex synaptic membranes (washed P2 pellet)
Description: as §1, §2, §3, §4, §5

[7] = doses far above tranquilizing doses; cited from earlier work
[8] = cats; doses below those that caused ataxia; cited from earlier work

For `O=C1CN=C(c2ccccc2F)c2cc(Cl)ccc2N1CC(F)(F)F` [2-oxo-quazepam, 7-chloro-1-(2,2,2-trifluoroethyl)-5-(2-fluorophenyl)-1,3-dihydro-2H-1,4 benzodiazepine-2-one], the non-specific binding [1] was < 5%, the IC50 [2] was 8.8 nM and the “populations of binding sites distinguished” value ([2]; vs ^3 H-flunitrazepam, cerebellum) was “did not distinguish subpopulations of binding sites”. The IC50 [3] was 13.6 nM, the “relative potency vs quazepam” value ([3]; cerebellum, vs ^3 H-2-oxo-quazepam) was 19 times and the “subpopulations of BZ receptors distinguished” value [4] was “distinguish two subpopulations of benzodiazepine (BZ) receptors”. For the same compound, the “relative proportion of ^3 H-flunitrazepam binding sites, first-named subpopulation” value ([5]; rat cortex) was 55%, the “relative proportion of ^3 H-flunitrazepam binding sites, second-named subpopulation” value ([5]; rat cortex) was 45% and the “difference in binding affinity for two BZ receptors (BZ-1 and BZ-2)” value ([5]; rat cortex) was 22 fold. For the same compound, the “populations of binding sites distinguished” value ([5]; rat cortex) was “distinguished two subpopulations”, the IC50 ([5]; vs ^3 H-flunitrazepam 0.5 nM, cortex, 0° C., 90 minutes, read-out: IC50, high affinity component) was 9.3 nM and the IC50 [6] was 16.8 nM. For the same compound, the “relative potency vs quazepam” value ([6]; cortex, vs ^3 H-2-oxo-quazepam) was 6 times, the “BZ-1 selectivity of binding” value ([6]; low concentrations (0.5 nM)) was “binds BZ-1 receptors almost exclusively” and the best-fit curve model [6] was “single site curve fitting model”. The “potency in cortex compared with cerebellum” value ([6]; vs ^3 H-2-oxo-quazepam, cortex and cerebellum) was “roughly equipotent”.
In the case of `[3H]C([3H])(N1C(=O)CN=C(c2ccccc2F)c2cc(Cl)ccc21)C(F)(F)F` [^3 H-2-oxo-quazepam, 7-Chloro-1-^3 H-(2,2,2-Trifluoroethyl)-5-(2-Fluorophenyl)-1,3-Dihydro-2H-1,4 Benzodiazepine-2-One], the non-specific binding [1] is reported as 5 to 10% and the “non-specific binding vs concentration” value ([1]; 0.1 to 30 nM, even after saturation of BZ-1 receptors) is reported as “linear relationship with increasing concentration”.
For `CN1C(=O)CN=C(c2ccccc2F)c2cc([N+](=O)[O-])ccc21` [flunitrazepam, reference compound], the “receptor subtype specificity of binding” value ([5]; benzodiazepine receptors) was “binds non-specifically to benzodiazepine receptors” and the “populations of binding sites distinguished” value ([5]; rat cortex) was “only a single uniform population of sites”.
In the case of `O=C1CN=C(c2ccccc2)c2cc(Cl)ccc2N1CC(F)(F)F` [halazepam], the ataxic effects [7] is given as “only weak ataxic effects”.
For `Fc1ccccc1C1=NCC(=S)N(CC(F)(F)F)c2ccc(Cl)cc21` [quazepam, 7-chloro-1-(2,2,2-trifluorethyl)-5-(2-fluorophenyl)-1,3-dihydro-2H-1,4 benzodiazpeine-2-thione, reference compound], the IC50 [3] is given as 258 nM, the behavioural effect [8] is given as “only drowsiness and sleep” and the “difference in binding affinity for two BZ receptors (BZ-1 and BZ-2)” value ([5]; rat cortex) is given as 54 fold. For the same compound, the “populations of binding sites distinguished” value ([5]; rat cortex) was “distinguished two subpopulations”, the IC50 [6] was 101 nM and the best-fit curve model [6] was “single site curve fitting model”.
